Reference: patent publication US12071586B2, “Composition and method for controlling bacteria in formations” (priority 2017, dated 2024)

Legend:
SRB [1] = assay: Hydrogen sulfide inhibition in mock-produced water spiked with SRB, H2S by Draeger tubes; format: cell-based, sulfate-reducing bacteria (SRB); conditions: 20 ppm MoO4 alone, mock produced water (Example 6)
Protocol: (§1) Hydrogen sulfide inhibition was tested in mock-produced water approximating water used in hydraulic fracturing operations and was made to a total dissolved solids concentration of 3% with a mixture of instant ocean and NaCl salts. The water was supplemented with nutrients and sulfate to allow SRB to metabolize and create H2S. The water was spiked with SRB and then treated with the various treatment conditions noted below in Table 3 and sealed. Treatment conditions were: Control: No biocide or nitrate.
(§2) H2S was measured at intervals using H2S detecting Draeger tubes. Dissolved H2S was released into the gas phase with the addition of hydrochloric acid so that H2S could be measured with the Draeger tubes to get a complete reading of all H2S produced during the course of the example.
Example 6 was performed in accordance with Example 4 using mock produced water. Samples of the following were mixed with the mock produced water.

SRB [2] = assay: Hydrogen sulfide inhibition in actual produced water (Eagle Ford shale, diluted to 3%), H2S by Draeger tubes; format: cell-based, sulfate-reducing bacteria (SRB); conditions: 20 ppm MoO4 alone, actual produced water (Example 7)
Protocol: as §1, §2
Samples were prepared in accordance with Example 4, except that actual produced water sourced from the Eagle Ford shale that was diluted to 3% using deionized water was used in the samples.
Example 7 was performed in accordance with Example 6 using actual produced water. Samples of the following were mixed with the […].

What does the source list for `[O]=[Mo](=[O])([O-])[O-]` [MoO4, molybdate]?
Total H2S (SRB [1]): 1974 ppm; Total H2S (SRB [2]): 3188 ppm
